Source: ChEMBL document CHEMBL1141556, “Structural insights into hydroxycoumarin-induced apoptosis in U-937 cells” (Bioorg Med Chem, 2008)
Where “and” joins values, the source holds several entries; their conditions need not be identical. Equal entries are not always repeated. Calls of active or inactive are those of the source. The calls are words filed in the database; no cut-off is given here.

Experiments:
[1] = tested on: U-937; test: Effect on DNA fragmentation in human U937 cells assessed as ladder-like pattern at 2 mM after 24 hrs; format: functional, cell-based
[2] = tested on: U-937; test: Growth inhibition of human U937 cells by [3H]thymidine incorporation assay; format: functional, cell-based
[3] = tested on: U-937; test: Induction of apoptosis in human U937 cells at 250 uM after 24 hrs; format: functional
[4] = tested on: U-937; test: Cytotoxicity against human U937 cells by trypan blue assay after 48 hrs; format: functional; settings: U-937, 48 h
[5] = tested on: U-937; test: Reversal of proapoptotic effect in human U937 cells assessed as inhibition of ladder-like pattern at 250 uM in presence of 10 mM NAC added every 8 hrs for 24 hrs; format: functional, cell-based
[6] = tested on: U-937; test: Reversal of induction of apoptosis in human U937 cells at 250 uM in presence of 10 mM NAC added every 8 hrs for 24 hrs; format: functional, cell-based
[7] = tested on: U-937; test: Induction of DNA fragmentation in human U937 cells at 2 mM after 24 hrs; format: functional, cell-based

Row | IC50 ([2]; Homo sapiens, U-937) | IC50 ([2]; u-937) | Compound | Activity [1] | Activity [3] | CC50 [4] | Activity [5] | Activity [6] | Activity [7]
1 | 628 µM |  | Cc1cc(=O)oc2ccc(O)cc12 | Active | 3% | > 2000 µM |  |  | 
2 | > 2000 µM |  | Cc1ccc2c(C)cc(=O)oc2c1 |  | 5.3% | > 2000 µM |  |  | 
3 | > 2000 µM |  | Cc1cc(=O)oc2c(C)cccc12 |  | 4.6% | > 2000 µM |  |  | 
4 | > 2000 µM |  | Cc1ccc2oc(=O)cc(C)c2c1 |  | 4.3% | > 2000 µM |  |  | 
5 | > 2000 µM |  | O=c1oc2ccccc2cc1O [3-HYDROXYCOUMARIN] |  | 5.3% | > 2000 µM |  |  | 
6 | 48.6 µM |  | Cc1cc(=O)oc2c(O)c(O)ccc12 [4-METHYLDAPHNETIN] |  | 55% | 165 µM | Active | Active | 
7 | > 2000 µM |  | O=c1ccc2ccccc2o1 [COUMARIN] |  | 2.6% | > 2000 µM |  |  | 
8 | 31.3 µM |  | O=c1ccc2cc(O)c(O)cc2o1 [ESCULETIN] |  | 54.3% | 194 µM |  |  | Active
9 | > 2000 µM |  | COc1ccc2c(C)cc(=O)oc2c1 [HYMECROMONE METHYL ETHER] |  | 4% | > 2000 µM |  |  | 
10 |  | > 2000 µM | Cc1cc(=O)oc2cc(O)ccc12 [HYMECROMONE] | Active | 5.2% and 4.7% | > 2000 µM |  |  | 
11 | 152 µM |  | COc1cc2ccc(=O)oc2cc1O [SCOPOLETIN] | Active | 6.3% | 600 µM |  |  | 
